The assay addresses C-KIT (D816V) (Homo sapiens, UniProt P10721, D816V). The assay can be described thus: in vitro kinase activity assay (substrate/ATP, 384-well, ELISA-BMG readout), positive control. In kind it is biochemical. For orientation: ELISA stands for enzyme-linked immunosorbent assay.

Chain of C-KIT (D816V) (P10721 546-976 D816V limits assumed): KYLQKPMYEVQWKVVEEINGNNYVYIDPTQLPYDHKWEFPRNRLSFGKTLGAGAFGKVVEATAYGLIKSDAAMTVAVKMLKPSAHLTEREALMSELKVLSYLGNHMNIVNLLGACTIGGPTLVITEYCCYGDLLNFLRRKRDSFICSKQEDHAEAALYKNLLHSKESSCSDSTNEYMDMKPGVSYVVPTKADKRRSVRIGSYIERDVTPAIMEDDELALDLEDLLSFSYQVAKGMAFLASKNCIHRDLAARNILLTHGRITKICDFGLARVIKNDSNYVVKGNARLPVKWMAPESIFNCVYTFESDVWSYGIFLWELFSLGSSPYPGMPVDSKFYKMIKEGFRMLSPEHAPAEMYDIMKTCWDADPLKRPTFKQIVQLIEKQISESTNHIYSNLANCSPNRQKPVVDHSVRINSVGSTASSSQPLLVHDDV

In the case of `S=C(NCc1ccc2c(c1)OCO2)N1CCN(c2ncnc3c2oc2ccccc23)CC1` [Amuvatinib], the IC50 (commonly the point on the concentration scale where inhibition reaches its midpoint) amounted to 26.9 ± 1.51 nM.
